Series [1] relates to LPS-induced NO production in RAW 264.7 cells. Nature of the series: NO production in LPS-activated RAW 264.7 macrophage cells (DAF-FM diacetate). Type of series: cell-based. Particulars: LPS-activated RAW 264.7 cells, mean ± SEM, three replicates; for IC50: Mus musculus, RAW264.7. The protocol:
TNF-α and IL-6 production were detected in RAW 264.7 macrophage cell culture supernatants following the induction of inflammation by LPS. Moreover, the probes of oxidative species 2,7-dichlorofluorescein diacetate (DCFH-DA) (Molecular Probes) and NO, 4-amino-5-methylamino-2,7-difluorofluorescein diacetate (DAF-FM diacetate) (Molecular Probes) were used to investigate the antioxidant and NO production inhibitory potential of the test compounds. Briefly, RAW 264.7 cells were cultured in black 96 well plates (200 000 cells/mL, 100 µl/well) for 24 h followed by the incubation with the individual test compounds or the reference drugs at different concentrations (12.5, 25, 50, and 100 µM) for 2 h at 37 °C. LPS was then added at a final concentration of 1 µg/mL for an additional 18 h. The cell culture supernatant was collected from cells treated with the different compounds at 25 µM to measure TNF-α and IL-6 levels (1:10 dilution) using DuoSet ELISA kits (R&D Systems, Minneapolis, MN) following the manufacturer’s instructions. Then, the plates were washed to perform ROS and NO detection assays as detailed in our previous studies[16]^,[27].

Series [2] relates to ACHN. Nature of the series: NCI single dose screen, ACHN. Format: cell-based. The settings on record: Homo sapiens, renal cancer, single dose 10^−5 M, read-out: growth inhibition percentage. The protocol:
(§1) Screening of the anticancer activity of the newly synthesised compounds (6a, 6c, 6d, 6e, 6j, 6l, 6m, 6n, 6o, and 6p) was performed by the US National Cancer Institute (NCI) using 60 different human tumour cell lines in accordance with standard procedures formerly reported.
(§2) In vitro anticancer screening was carried out for the selected compounds at a single dose (10^−5 M) against 60 different human tumour cell lines of nine different cancer cell types: leukaemia, lung, colon, CNS, melanoma, ovarian, renal, prostate, and breast cancers.

The subject of series [3] is PC-3. In words: NCI single dose screen, PC-3. Type of series: cell-based. Particulars: Homo sapiens; PC-3, prostate cancer; single dose 10^−5 M; read-out: growth inhibition percentage. The protocol:
as §1, §2

Series [4] can be described thus: Cell viability assay against normal cell line (MTS). Type of series: cell-based. Particulars: mouse, RAW 264.7 cells, concentrations up to 50 μM, read-out: cell viability percentage of the control values. The protocol:
To evaluate the possible non-selective cytotoxic effect of the investigated compounds (6a, 6c, 6d, 6e, 6j, 6l, 6m, 6n, 6o, and 6p) on normal cells, their effect on RAW 264.7 cells viability was assessed at different concentrations (12.5, 25, 50, and 100 µM). Cell viability was measured using 3-(4,5-dimethylthiazol-2-yl)-5-(3-carboxymethoxyphenyl)-2-(4 sulfophenyl)-2H-tetrazolium (MTS) assay (Promega, Madison, Wisconsin) according to the manufacturer’s instructions.

The subject of series [5] is SNB-19. Nature of the series: NCI single dose screen, SNB-19. Type of series: cell-based. The settings on record: Homo sapiens; SNB-19, CNS cancer; single dose 10^−5 M; read-out: growth inhibition percentage. The protocol:
as §1, §2

Series [6] concerns OVCAR-4. Nature of the series: NCI single dose screen, OVCAR-4. Format: cell-based. The settings on record: Homo sapiens; OVCAR-4, ovarian cancer; single dose 10^−5 M; read-out: growth inhibition percentage. The protocol:
as §1, §2

The test system of series [7] is A549/ATCC. In words: NCI single dose screen, A549/ATCC. Type of series: cell-based. Particulars: Homo sapiens, non-small cell lung cancer, single dose 10^−5 M, read-out: growth inhibition percentage. The protocol: as §1, §2
In series [8] the test system is MALME-3M. Nature of the series: NCI single dose screen, MALME-3M. Format: cell-based. Particulars: Homo sapiens, melanoma, single dose 10^−5 M, read-out: growth inhibition percentage. The protocol: as §1, §2
For series [9], the target named is T1, soybean 15-LOX (Glycine max, UniProt P08170).
T1 sequence (P08170 1-839): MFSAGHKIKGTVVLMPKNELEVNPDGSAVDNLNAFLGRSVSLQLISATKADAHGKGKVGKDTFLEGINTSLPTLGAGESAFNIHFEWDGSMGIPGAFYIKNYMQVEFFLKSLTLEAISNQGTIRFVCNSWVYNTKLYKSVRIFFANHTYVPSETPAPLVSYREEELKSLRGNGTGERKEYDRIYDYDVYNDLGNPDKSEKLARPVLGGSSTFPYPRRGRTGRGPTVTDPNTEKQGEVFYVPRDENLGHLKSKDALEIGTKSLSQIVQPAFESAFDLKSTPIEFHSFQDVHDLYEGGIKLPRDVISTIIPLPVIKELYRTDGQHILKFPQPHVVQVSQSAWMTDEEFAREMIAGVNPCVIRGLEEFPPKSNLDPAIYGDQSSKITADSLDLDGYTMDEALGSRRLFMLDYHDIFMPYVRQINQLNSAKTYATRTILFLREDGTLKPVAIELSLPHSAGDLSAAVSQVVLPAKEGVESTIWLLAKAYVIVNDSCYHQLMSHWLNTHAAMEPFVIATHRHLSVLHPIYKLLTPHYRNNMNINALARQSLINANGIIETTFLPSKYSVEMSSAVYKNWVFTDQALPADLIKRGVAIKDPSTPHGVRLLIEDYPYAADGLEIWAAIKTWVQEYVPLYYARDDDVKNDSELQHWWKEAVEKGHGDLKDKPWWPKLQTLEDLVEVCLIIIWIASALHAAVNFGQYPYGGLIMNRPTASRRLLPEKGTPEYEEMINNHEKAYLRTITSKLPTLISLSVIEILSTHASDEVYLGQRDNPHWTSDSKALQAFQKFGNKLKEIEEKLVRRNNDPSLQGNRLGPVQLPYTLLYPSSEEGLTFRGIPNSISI
In words: 15-LOX inhibitor screening assay (Cayman). Type of series: biochemical. The settings on record: mean ± SEM, n = 3 replicates.

For series [10], the target named is T2, double mutant EGFR^L858R/T790M (Homo sapiens, UniProt P00533, L858R/T790M).
T2 construct: purchased AssayQuant Technologies, Inc. (Marlboro, MA, USA)
T2 sequence (P00533 25-1210 T790M/L858R): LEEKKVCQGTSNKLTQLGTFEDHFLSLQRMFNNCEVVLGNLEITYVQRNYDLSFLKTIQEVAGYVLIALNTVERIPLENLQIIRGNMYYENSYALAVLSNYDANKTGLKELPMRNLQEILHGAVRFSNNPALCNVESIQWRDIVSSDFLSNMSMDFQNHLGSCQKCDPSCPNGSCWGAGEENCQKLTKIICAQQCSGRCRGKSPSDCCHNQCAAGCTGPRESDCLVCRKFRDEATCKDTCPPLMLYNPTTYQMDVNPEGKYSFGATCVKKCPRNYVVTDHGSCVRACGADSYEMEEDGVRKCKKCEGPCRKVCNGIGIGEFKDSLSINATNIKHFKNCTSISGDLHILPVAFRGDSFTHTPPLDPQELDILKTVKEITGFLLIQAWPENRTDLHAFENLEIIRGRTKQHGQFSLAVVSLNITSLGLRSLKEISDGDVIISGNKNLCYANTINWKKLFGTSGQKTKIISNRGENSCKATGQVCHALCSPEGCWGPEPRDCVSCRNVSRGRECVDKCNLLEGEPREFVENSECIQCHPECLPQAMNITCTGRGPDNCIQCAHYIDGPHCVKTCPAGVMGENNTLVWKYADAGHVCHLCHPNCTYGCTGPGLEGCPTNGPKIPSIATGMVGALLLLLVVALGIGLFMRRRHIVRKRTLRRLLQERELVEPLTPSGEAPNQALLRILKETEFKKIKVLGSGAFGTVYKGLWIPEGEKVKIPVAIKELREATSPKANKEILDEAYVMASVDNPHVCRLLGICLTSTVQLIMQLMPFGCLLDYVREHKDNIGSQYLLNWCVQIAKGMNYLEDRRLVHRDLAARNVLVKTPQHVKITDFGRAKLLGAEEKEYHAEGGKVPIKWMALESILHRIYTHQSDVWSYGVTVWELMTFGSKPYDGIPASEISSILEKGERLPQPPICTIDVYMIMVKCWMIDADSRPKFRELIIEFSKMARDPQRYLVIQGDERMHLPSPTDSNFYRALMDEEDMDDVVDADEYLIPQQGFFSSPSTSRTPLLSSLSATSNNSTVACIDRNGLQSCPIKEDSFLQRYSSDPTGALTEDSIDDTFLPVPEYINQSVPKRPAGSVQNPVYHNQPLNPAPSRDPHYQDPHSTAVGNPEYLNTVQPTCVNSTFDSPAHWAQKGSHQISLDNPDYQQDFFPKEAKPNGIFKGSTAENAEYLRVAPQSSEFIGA
In words: In vitro EGFR inhibition assay, double mutant. Particulars: for IC50: double mutant EGFR; for Selectivity (SI): ratio of the IC50 values EGFR^WT/EGFR^L858R/T790M. Type of series: biochemical.

The subject of series [11] is SK-MEL-5. Nature of the series: NCI single dose screen, SK-MEL-5. The settings on record: Homo sapiens; SK-MEL-5, melanoma; single dose 10^−5 M; read-out: growth inhibition percentage. Type of series: cell-based. The protocol: as §1, §2
In series [12] the test system is HCT-116. In words: NCI single dose screen, HCT-116. Format: cell-based. The settings on record: Homo sapiens; HCT-116, colon cancer; single dose 10^−5 M; read-out: growth inhibition percentage. The protocol:
as §1, §2

Series [13] relates to CCRF-CEM. Nature of the series: NCI single dose screen, CCRF-CEM. Type of series: cell-based. Particulars: Homo sapiens, leukaemia, single dose 10^−5 M, read-out: growth inhibition percentage. The protocol:
as §1, §2

Series [14] deals with SK-MEL-28. Nature of the series: NCI single dose screen, SK-MEL-28. Type of series: cell-based. The settings on record: Homo sapiens; SK-MEL-28, melanoma; single dose 10^−5 M; read-out: growth inhibition percentage. The protocol: as §1, §2
Series [15] concerns MDA-MB-435. Nature of the series: NCI single dose screen, MDA-MB-435. Type of series: cell-based. The settings on record: Homo sapiens; MDA-MB-435, melanoma; single dose 10^−5 M; read-out: growth inhibition percentage. The protocol:
as §1, §2

Take `CN1CN(NC(=O)Nc2ccccc2)C(=O)c2ccccc21` [Compound 6a, 1-(1-Methyl-4-oxo-1,4-dihydroquinazolin-3(2H)-yl)-3-phenylurea]: the IC50 in series [1] was 0.97 ± 1.67 µM; in series [9] it was 1.48 ± 0.27 µM; in series [10], 0.46 ± 1.11 µM. The inhibition at 10 µM in series [2], in series [3], in series [5], in [6], in series [7] and in series [8] was below 10% each time. In addition, the inhibition at 10 µM in series [11], in series [12], in series [13], in series [14] and in series [15] was below 10% each time. In addition, the viability in series [4] is above 90%. Moreover, the “Selectivity (SI)” value in series [10] was above 217.
`CN1c2ccccc2C(=O)N(NC(=O)Nc2ccccc2)C1c1ccccc1` (stereo not shown) [Compound 6c, 1-(1-Methyl-4-oxo-2-phenyl-1,4-dihydroquinazolin-3(2H)-yl)-3-phenylurea]: the values for the IC50 in [1], in [9] and in series [10] were 1.54 ± 1.02 µM, 1.36 ± 0.19 µM and 7.93 ± 1.11 µM, respectively. The inhibition at 10 µM in series [2], in [3], in series [5], in series [6], in [7] and in series [8] was below 10% in each case. In addition, the inhibition at 10 µM in series [11] was below 10%; in series [12], 16.8%; in [13] it was below 10%; in series [14] it was below 10%; in [15] it was below 10%. Also, the viability in series [4] is above 90%. In addition, the “Selectivity (SI)” value in series [10] is above 12.6.
As for `CN1c2ccccc2C(=O)N(NC(=O)Nc2ccccc2)C1c1ccc(F)cc1` (stereo not shown) [Compound 6d, 1-(2-(4-Fluorophenyl)-1-methyl-4-oxo-1,4-dihydroquinazolin-3(2H)-yl)-3-phenylurea], the values for the half-inhibitory concentration (IC50) in series [1], in [9] and in series [10] were 4.12 ± 0.65 µM, 1.96 ± 0.23 µM and 5.57 ± 1.78 µM, respectively. In addition, the inhibition at 10 µM in series [2] was below 10%; in series [3], 18.6%; in series [5], below 10%; in [6], below 10%; in [7], below 10%; in series [8] it was below 10%. Besides, the inhibition at 10 µM in [11], in series [12], in series [13], in series [14] and in series [15] was below 10% each time. The viability in [4] is above 90%. Moreover, the “Selectivity (SI)” value in series [10] is recorded as above 17.9.
For the molecule `CN1c2ccccc2C(=O)N(NC(=O)Nc2ccccc2)C1c1ccc([N+](=O)[O-])cc1` (stereo not shown) [Compound 6e, 1-(1-Methyl-2-(4-nitrophenyl)-4-oxo-1,4-dihydroquinazolin-3(2H)-yl)-3-phenylurea], in series [1], the “NO IC50” value is given as “did not show any significant NO inhibitory activity”. In addition, the IC50 is above 100 µM in series [1], 1.76 ± 0.27 µM in series [9] and 5.48 ± 1.33 µM in series [10]. Further, the inhibition at 10 µM in series [2], in [3], in series [5], in series [6], in [7] and in series [8] was below 10% each time. Besides, the inhibition at 10 µM was below 10% in series [11]; 53.1% in series [12]; below 10% in [13]; below 10% in [14]; below 10% in series [15]. Moreover, the viability in [4] is above 90%. For the same molecule, the “Selectivity (SI)” value in series [10] worked out at 8.9.
`COc1ccc(NC(=O)NN2C(=O)c3ccccc3N(C)C2c2ccc(OC)cc2)cc1` (stereo not shown) [Compound 6j, 1-(4-Methoxyphenyl)-3-(2-(4-methoxyphenyl)-1-methyl-4-oxo-1,4-dihydroquinazolin-3(2H)-yl)urea]: the IC50 in series [1] is 13.5 ± 0.29 µM; in series [9], 1.95 ± 0.35 µM; in series [10] it was 4.03 ± 1.43 µM. Also, the inhibition at 10 µM is below 10% in series [2]; 10.8% in [3]; below 10% in [5]; below 10% in series [6]; below 10% in series [7]; below 10% in series [8]. Besides, the inhibition at 10 µM in series [11] is below 10%; in [12], 40.6%; in series [13], below 10%; in series [14], below 10%; in series [15], below 10%. In addition, the viability in series [4] is above 90%. Further, the “Selectivity (SI)” value in series [10] was above 24.8.
With `CC1N(NC(=O)Nc2ccc(F)cc2)C(=O)c2ccccc2N1C` (stereo not shown) [Compound 6l, 1–(1,2-Dimethyl-4-oxo-1,4-dihydroquinazolin-3(2H)-yl)-3-(4-fluorophenyl)urea], the results for the IC50 in [1], in series [9] and in series [10] were 5.24 ± 0.5 µM, 1.58 ± 0.28 µM and 17 ± 1.4 µM, respectively. Further, the inhibition at 10 µM in [2], in [3], in [5], in series [6], in series [7] and in series [8] was below 10% throughout. Moreover, the inhibition at 10 µM in series [11], in series [12], in series [13], in series [14] and in [15] was below 10% each time. In addition, in [4], the viability was above 90%. The “Selectivity (SI)” value in series [10] was above 5.8.

By IC50 is commonly meant the concentration needed to halve the response being measured. Low values mean inhibition by little substance, high ones a need for much substance. As a reminder, the inhibition is the share of the control response that was lost under treatment. One may read the viability as the share of living cells, or the viability signal relative to a control.

The values above are taken from article PMC10114980, “Triple targeting of mutant EGFR^L858R/T790M, COX-2, and 15-LOX: design and synthesis of novel quinazolinone tethered phenyl urea derivatives for anti-inflammatory and anticancer evaluation” (Journal of Enzyme Inhibition and Medicinal Chemistry, 2023).
